# Measurements reported in patent US20090264384A1, “INDOLE, BENZIMIDAZOLE, AND BENZOLACTAM BORONIC ACID COMPOUNDS, ANALOGS THEREOF AND METHODS OF USE THEREOF” (Nuada, Inc., priority 2004, published 2009).
# Legend:
# [1] = tested on: Catechol-O-methyl transferase; test: Catechol-O-methyl transferase enzyme assay; format: biochemical, porcine; settings: 1.0E−05 M
# [2] = tested on: P2X; test: P2X binding assay; parameters: species or system rat; settings: 1.0E−05 M
# [3] = molecular target: Ca^2+ channel (L, diltiazem site) (benzothiazepines) (Rattus norvegicus, UniProt P22002); test: Ca^2+ channel (L, diltiazem site) binding assay; settings: read-out: % Inhibition of Control Specific Binding
# [4] = molecular target: T1, GABA transaminase (Rattus norvegicus, UniProt P50554); test: GABA transaminase enzyme assay; format: biochemical; settings: 1.0E−05 M
# T1 construct: rat brain; from tissue; host or cells: rat brain
# [5] = molecular target: T2, β1(h) (Homo sapiens, UniProt P08588); test: β1(h) binding assay; settings: read-out: % Inhibition of Control Specific Binding
# T2 construct: expressed in transfected cells; host or cells: HEK-293 cells
# [6] = tested on: σ (non-selective); test: σ (non-selective) binding assay; parameters: species or system rat; settings: 1.0E−05 M
# [7] = tested on: K^+V channel; test: K^+V channel binding assay; parameters: species or system rat; settings: 1.0E−05 M
# [8] = molecular target: T3, D2S(h) (Homo sapiens, UniProt P14416); test: biochemical; format: binding; settings: 1.0E−05 M; read-out: % Inhibition of Control Specific Binding
# T3 construct: expressed in transfected cells; host or cells: CHO cells
# [9] = molecular target: T4, D1(h) (Homo sapiens, UniProt P21728); test: D1(h) binding assay; settings: read-out: % Inhibition of Control Specific Binding
# T4 construct: expressed in transfected cells; host or cells: CHO cells
# [10] = molecular target: T5, LTD4(h) (Homo sapiens, UniProt Q9Y271); test: LTD4(h) binding assay; settings: read-out: % Inhibition of Control Specific Binding
# T5 construct: LTD4(h); U-937 cells; LTD4; Frey et al. (1993); endogenous in cells; host or cells: U-937 cells
# [11] = tested on: Progesterone(h) (PR); test: Progesterone(h) (PR) binding assay; parameters: species or system human; settings: 1.0E−05 M
# [12] = tested on: PCP; test: PCP binding assay; parameters: species or system rat; settings: 1.0E−05 M
# [13] = tested on: Adenylyl cyclase (basal); test: Adenylyl cyclase (basal) enzyme assay; format: biochemical, rat; settings: 1.0E−05 M
# [14] = molecular target: T6, K^+ATP channel (Rattus norvegicus, UniProt Q09429); test: K^+ATP channel binding assay; settings: 1.0E−05 M; read-out: % Inhibition of Control Specific Binding
# T6 construct: rat cerebral; from tissue; host or cells: rat cerebral cortex
# [15] = molecular target: T7, Choline transporter (Rattus norvegicus, UniProt Q9JMD7); test: Choline transporter binding assay; settings: 1.0E−05 M; read-out: % Inhibition of Control Specific Binding
# T7 construct: rat striatum; from tissue; host or cells: rat striatum
# T7 sequence (Q9JMD7 1-580): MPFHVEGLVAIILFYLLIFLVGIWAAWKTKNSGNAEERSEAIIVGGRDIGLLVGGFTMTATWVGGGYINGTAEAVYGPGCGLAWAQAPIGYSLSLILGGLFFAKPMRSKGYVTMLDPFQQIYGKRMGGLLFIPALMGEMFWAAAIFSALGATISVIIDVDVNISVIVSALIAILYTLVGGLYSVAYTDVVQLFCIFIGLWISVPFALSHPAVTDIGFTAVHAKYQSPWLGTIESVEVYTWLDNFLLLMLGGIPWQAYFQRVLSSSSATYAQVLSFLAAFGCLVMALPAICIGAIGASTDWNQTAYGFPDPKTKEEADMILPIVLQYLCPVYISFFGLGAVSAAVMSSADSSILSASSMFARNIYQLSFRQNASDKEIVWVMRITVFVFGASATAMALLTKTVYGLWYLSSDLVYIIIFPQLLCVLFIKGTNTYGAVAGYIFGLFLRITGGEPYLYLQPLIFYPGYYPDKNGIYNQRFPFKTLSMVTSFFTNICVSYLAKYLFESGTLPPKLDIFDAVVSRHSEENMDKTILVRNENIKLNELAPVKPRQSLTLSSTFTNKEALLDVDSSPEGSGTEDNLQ
# [16] = molecular target: T8, 5-HT transporter(h) (Homo sapiens, UniProt P31645); test: 5-HT transporter(h) binding assay; settings: read-out: % Inhibition of Control Specific Binding
# T8 construct: expressed in transfected cells; host or cells: HEK-293 cells
# [17] = molecular target: T9, MC4(h) (Homo sapiens, UniProt P32245); test: MC4(h) binding assay; settings: 1.0E−05 M; read-out: % Inhibition of Control Specific Binding
# T9 construct: expressed in transfected cells; host or cells: HEK-293 cells
# [18] = tested on: Kainate; test: Kainate binding assay; parameters: species or system rat; settings: 1.0E−05 M
# [19] = molecular target: T10, ORL1(h) (NOP) (Homo sapiens, UniProt P41146); test: ORL1(h) (NOP) binding assay; settings: 1.0E−05 M; read-out: % Inhibition of Control Specific Binding
# T10 construct: expressed in transfected cells; host or cells: HEK-293 cells
# [20] = molecular target: T11, ETB(h) (Homo sapiens, UniProt P24530); test: ETB(h) binding assay; settings: read-out: % Inhibition of Control Specific Binding
# T11 construct: expressed in transfected cells; host or cells: CHO cells
# [21] = molecular target: T12, Estrogen(h) (ER) (Homo sapiens, UniProt P03372); test: Estrogen(h) (ER) binding assay; settings: 1.0E−05 M
# T12 construct: Estrogen(h); MCF-7 cells; 17-β-estradiol; Sheen et al. (1985); endogenous in cells; host or cells: MCF-7 cells (cytosol)
# [22] = tested on: Na^+ channel (site 2); format: binding, rat; settings: 1.0E−05 M
# [23] = molecular target: T13, D3(h) (Homo sapiens, UniProt P35462); test: D3(h) binding assay; settings: 1.0E−05 M; read-out: % Inhibition of Control Specific Binding
# T13 construct: expressed in transfected cells; host or cells: CHO cells
# [24] = molecular target: T14, CRF1 (Rattus norvegicus, UniProt P35353); test: CRF1 binding assay; settings: read-out: % Inhibition of Control Specific Binding
# T14 construct: from tissue; host or cells: rat pituitary gland
# [25] = tested on: α1 (non-selective); test: α1 (non-selective) binding assay; parameters: species or system rat; settings: 1.0E−05 M
# [26] = tested on: SK^+Ca channel; test: SK^+Ca channel binding assay; parameters: species or system rat; settings: 1.0E−05 M
# [27] = molecular target: T15, AT1(h) (Homo sapiens, UniProt P30556); test: AT1(h) binding assay; settings: read-out: % Inhibition of Control Specific Binding
# T15 construct: expressed in transfected cells; host or cells: CHO cells
# [28] = molecular target: T16, Phosphodiesterase 2(h) (Homo sapiens, UniProt O00408); test: Phosphodiesterase 2(h) enzyme assay; format: biochemical; settings: 1.0E−05 M
# T16 construct: differentiated U-; endogenous in cells; host or cells: differentiated U-937 cells
# [29] = tested on: Cl-channel; test: Cl-channel binding assay; parameters: species or system rat; settings: 1.0E−05 M
# [30] = molecular target: T17, MAO-B(h) (Homo sapiens, UniProt P27338); format: biochemical; settings: 1.0E−05 M
# T17 construct: human platelets; from tissue; host or cells: human platelets
# [31] = tested on: Ca^2+ channel (L, verapamil site) (phenylalkylamines); test: Ca^2+ channel (L, verapamil site) binding assay; parameters: species or system rat; settings: 1.0E−05 M
# T5 sequence (Q9Y271 whole entry): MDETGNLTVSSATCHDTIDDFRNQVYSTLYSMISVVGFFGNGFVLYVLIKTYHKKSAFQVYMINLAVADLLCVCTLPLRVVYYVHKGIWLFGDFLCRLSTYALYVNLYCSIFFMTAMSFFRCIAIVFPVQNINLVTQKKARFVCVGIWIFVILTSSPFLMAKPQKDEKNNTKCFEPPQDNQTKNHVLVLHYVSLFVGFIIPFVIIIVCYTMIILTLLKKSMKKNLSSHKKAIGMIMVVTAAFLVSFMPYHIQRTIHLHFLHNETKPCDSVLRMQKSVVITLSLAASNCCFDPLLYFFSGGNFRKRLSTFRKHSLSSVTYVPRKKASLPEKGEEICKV
# T16 sequence (O00408 whole entry): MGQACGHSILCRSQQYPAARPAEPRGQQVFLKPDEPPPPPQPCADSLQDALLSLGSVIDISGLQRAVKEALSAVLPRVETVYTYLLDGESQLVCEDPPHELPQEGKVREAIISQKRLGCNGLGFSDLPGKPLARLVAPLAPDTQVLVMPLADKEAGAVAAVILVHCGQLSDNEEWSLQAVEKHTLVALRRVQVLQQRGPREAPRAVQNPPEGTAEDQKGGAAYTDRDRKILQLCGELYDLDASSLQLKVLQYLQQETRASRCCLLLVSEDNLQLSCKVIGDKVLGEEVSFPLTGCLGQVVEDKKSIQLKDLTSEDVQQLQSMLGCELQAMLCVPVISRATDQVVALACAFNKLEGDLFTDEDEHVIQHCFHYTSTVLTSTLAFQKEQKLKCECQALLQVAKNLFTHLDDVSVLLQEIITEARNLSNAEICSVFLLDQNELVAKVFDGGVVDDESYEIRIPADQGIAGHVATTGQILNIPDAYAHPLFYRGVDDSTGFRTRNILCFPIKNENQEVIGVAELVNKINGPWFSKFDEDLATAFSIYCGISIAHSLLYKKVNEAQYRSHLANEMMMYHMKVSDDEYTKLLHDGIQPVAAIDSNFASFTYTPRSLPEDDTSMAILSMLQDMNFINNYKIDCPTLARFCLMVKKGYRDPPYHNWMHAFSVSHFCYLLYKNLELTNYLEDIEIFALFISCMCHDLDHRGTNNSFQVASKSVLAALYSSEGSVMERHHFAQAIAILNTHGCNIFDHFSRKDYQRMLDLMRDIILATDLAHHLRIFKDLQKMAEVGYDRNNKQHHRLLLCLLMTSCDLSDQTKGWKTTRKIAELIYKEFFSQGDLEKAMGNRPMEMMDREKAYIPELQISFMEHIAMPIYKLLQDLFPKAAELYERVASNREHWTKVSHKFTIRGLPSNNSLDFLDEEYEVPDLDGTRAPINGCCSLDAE
# T15 sequence (P30556 whole entry): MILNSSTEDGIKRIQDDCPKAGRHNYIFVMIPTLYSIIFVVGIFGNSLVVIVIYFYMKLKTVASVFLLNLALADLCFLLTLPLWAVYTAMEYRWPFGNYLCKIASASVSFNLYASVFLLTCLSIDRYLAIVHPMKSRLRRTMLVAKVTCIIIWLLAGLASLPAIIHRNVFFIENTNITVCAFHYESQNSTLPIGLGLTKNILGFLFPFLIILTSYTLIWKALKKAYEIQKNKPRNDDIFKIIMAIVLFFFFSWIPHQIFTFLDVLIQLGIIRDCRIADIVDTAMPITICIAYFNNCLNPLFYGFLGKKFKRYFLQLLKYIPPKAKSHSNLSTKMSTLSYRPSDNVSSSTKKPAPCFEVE
# T3 sequence (P14416 1-414 isoform P14416-2): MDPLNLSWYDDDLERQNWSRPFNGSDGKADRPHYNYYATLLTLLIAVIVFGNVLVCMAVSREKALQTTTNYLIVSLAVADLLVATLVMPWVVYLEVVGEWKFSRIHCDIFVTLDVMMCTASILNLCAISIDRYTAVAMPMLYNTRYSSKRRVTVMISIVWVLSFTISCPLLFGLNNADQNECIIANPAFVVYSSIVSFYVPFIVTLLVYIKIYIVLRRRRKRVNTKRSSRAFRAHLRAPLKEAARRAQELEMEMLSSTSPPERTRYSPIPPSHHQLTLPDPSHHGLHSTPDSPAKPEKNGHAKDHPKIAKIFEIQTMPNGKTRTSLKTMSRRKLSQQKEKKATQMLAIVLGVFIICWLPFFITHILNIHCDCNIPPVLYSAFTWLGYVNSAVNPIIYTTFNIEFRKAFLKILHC
# T9 sequence (P32245 whole entry): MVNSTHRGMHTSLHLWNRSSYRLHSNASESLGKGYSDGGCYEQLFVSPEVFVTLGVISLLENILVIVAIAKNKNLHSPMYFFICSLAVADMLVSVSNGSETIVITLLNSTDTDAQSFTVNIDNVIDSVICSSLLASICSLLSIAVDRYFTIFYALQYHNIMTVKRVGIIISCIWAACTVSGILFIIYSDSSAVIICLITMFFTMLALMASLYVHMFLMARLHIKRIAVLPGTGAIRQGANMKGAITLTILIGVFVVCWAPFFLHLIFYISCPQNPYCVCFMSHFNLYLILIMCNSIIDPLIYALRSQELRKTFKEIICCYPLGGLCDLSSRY
# T11 sequence (P24530 27-442): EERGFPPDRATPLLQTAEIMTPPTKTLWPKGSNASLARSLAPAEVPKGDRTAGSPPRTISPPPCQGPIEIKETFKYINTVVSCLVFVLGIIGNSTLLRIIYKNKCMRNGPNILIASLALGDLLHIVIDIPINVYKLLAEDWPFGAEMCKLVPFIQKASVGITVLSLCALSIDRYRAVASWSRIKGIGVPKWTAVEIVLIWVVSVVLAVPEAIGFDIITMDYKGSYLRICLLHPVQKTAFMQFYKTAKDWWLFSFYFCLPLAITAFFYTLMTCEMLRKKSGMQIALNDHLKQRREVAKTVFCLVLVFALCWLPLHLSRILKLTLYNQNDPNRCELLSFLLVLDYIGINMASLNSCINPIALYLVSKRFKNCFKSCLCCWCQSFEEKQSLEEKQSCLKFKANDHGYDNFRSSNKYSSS
# T13 sequence (P35462 whole entry): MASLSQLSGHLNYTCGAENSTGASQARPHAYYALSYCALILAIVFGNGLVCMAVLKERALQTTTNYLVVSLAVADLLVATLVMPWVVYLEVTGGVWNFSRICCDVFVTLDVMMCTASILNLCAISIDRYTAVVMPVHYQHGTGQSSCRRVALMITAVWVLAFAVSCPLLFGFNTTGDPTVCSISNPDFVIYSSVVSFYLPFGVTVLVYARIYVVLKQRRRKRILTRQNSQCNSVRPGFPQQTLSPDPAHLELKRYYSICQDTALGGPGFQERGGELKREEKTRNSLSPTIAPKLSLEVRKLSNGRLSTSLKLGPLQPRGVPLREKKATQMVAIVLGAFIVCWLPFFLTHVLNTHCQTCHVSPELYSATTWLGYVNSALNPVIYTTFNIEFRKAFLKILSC
# T10 sequence (P41146 whole entry): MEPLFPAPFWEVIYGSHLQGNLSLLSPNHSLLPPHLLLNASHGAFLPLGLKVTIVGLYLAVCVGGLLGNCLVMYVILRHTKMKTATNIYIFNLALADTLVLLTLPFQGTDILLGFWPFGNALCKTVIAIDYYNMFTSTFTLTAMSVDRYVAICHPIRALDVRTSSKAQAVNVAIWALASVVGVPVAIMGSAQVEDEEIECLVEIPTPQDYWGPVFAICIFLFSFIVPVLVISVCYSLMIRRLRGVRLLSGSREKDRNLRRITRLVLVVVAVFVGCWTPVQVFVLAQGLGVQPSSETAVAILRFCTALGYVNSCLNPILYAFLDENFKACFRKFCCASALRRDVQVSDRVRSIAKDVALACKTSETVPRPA
# T14 sequence (P35353 24-415): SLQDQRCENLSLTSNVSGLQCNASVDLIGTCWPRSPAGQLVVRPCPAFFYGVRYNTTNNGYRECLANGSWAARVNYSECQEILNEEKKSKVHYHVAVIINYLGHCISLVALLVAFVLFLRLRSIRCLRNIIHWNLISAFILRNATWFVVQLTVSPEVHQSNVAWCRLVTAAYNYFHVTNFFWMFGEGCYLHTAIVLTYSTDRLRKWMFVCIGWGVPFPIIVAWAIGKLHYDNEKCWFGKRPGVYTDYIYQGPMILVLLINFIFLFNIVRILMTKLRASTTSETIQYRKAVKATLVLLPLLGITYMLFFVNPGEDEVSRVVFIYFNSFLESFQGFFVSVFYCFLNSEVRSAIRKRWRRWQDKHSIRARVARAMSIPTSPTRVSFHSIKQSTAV
# T8 sequence (P31645 whole entry): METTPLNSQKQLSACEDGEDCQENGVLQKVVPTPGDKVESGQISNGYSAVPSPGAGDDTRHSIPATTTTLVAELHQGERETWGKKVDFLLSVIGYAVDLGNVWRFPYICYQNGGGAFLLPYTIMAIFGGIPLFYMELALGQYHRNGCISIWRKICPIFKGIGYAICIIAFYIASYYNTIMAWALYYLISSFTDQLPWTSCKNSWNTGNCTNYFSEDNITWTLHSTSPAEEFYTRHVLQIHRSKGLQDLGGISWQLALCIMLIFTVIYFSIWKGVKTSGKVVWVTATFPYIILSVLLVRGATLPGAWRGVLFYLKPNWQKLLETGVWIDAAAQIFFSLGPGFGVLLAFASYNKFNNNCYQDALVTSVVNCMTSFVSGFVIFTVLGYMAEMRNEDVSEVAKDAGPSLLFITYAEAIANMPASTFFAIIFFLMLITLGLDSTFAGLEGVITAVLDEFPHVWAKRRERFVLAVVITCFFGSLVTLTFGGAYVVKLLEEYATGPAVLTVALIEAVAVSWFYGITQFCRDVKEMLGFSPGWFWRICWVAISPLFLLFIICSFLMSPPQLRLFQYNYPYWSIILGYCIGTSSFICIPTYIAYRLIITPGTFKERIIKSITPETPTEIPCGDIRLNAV
compound,measurement,setting,value
"N#Cc1ccc2c(ccn2CCCCCB(O)O)c1 [Example 20, 5-(5-cyano-1H-indol-1-yl)pentylboronic acid]",% Inhibition of Control Values,[1],−5%
same,% Inhibition of Control Specific Binding,[2],14%
same,inhibition at 10 µM,[3],-1%
same,% Inhibition of Control Values,[4],−2%
same,inhibition at 10 µM,[5],7%
same,% Inhibition of Control Specific Binding,[6],5%
same,% Inhibition of Control Specific Binding,[7],−5%
same,inhibition at 10 µM,[8],23%
same,inhibition at 10 µM,[9],0%
same,inhibition at 10 µM,[10],12%
same,% Inhibition of Control Specific Binding,[11],79%
same,% Inhibition of Control Specific Binding,[12],5%
same,% Stimulation Relative to Control,[13],−3%
same,inhibition at 10 µM,[14],25%
same,inhibition at 10 µM,[15],1%
same,inhibition at 10 µM,[16],90%
same,inhibition at 10 µM,[17],2%
same,% Inhibition of Control Specific Binding,[18],−6%
same,inhibition at 10 µM,[19],0%
same,inhibition at 10 µM,[20],10%
same,% Inhibition of Control Specific Binding,[21],3%
same,% Inhibition of Control Specific Binding,[22],13%
same,inhibition at 10 µM,[23],4%
same,inhibition at 10 µM,[24],-23%
same,% Inhibition of Control Specific Binding,[25],21%
same,% Inhibition of Control Specific Binding,[26],−15%
same,inhibition at 10 µM,[27],-3%
same,% Inhibition of Control Values,[28],95%
same,% Inhibition of Control Specific Binding,[29],26%
same,% Inhibition of Control Values,[30],−8%
same,% Inhibition of Control Specific Binding,[31],−12%
